According to PMC6072100, “Exploring the links between peptoid antibacterial activity and toxicity” (MedChemComm, 2017):
Square brackets hold non-standard residues; d marks the D form. Peptide text beside a SMILES is read from it. Nspe = C[C@H](NCC(=O)O)c1ccccc1; NhArg = N=C(N)NCCCCNCC(=O)O; NPentylGly = CCCCCNCC(=O)O

Legend:
[1] = Cytotoxicity assay with HepG2 (alamarBlue); assay type: cell-based, human; conditions: human, HepG2 cells
Procedure: The activity of our peptoid library was assessed against both bacterial and mammalian cells to gain a broader understanding of the factors that lead to effective and selective antimicrobial peptoids. We screened for broad-spectrum antibacterial activity against Gram-negative (Escherichia coli and Pseudomonas aeruginosa) and Gram-positive (Staphylococcus aureus and S. epidermidis) bacteria. The toxicity of the library was also assessed against two mammalian cell lines; HaCaT spontaneously transformed aneuploid keratinocytes were employed to model toxicity against human skin cells and HepG2, a cell line derived from a human liver carcinoma, were used as a study on polarised human hepatocytes. Detailed methods for these assays can be found in the ESI. ^‡ […]
Please note – ED50, the median effective dose, was defined as the dose that kills 50% of cells.
Cytotoxicity analyses were performed in 96-well plates (Costar, Fisher Scientific) using alamarBlue® (Invitrogen) for cell viability detection using a modified protocol as described previously. HepG2 or HaCaT cells were subcultured at 37 °C, 5% CO2 in DMEM high glucose supplemented with heat-inactivated foetal bovine sera (FBS, 10%; Biosera Ltd) and penicillin/streptomycin (P/S, 1%). Cells were counted using a Neubauer Improved Haemocytometer. HepG2 cells were seeded 1 day prior to treatment in 96 well plates at a concentration of 2 × 10^5 cells per mL in 100 μL of medium (2 × 10^4 cells per well). Then cells were pre-incubated with the compounds in triplicate in a dilution series in triplicate from 2–100 μM (5 mM stock solutions in DMSO diluted from 100 μM to 3 μM; untreated cells with DMSO as a negative control) in 50 μl of the media for 1 hour. Afterwards, 40 μL were removed from each well before the addition of 90 μL of the media, followed by incubation for 24 hours at 37 °C, 5% CO2. Then, 10 μL of alamarBlue® (Invitrogen) was added to each well before a 2 hour incubation prior to assessing cell viability using a fluorescent plate reader (Biotek; Ex 560 nm/Em 600 nm). All data were measured in triplicate on a minimum of two occasions to ensure a robust data set was collected. The ED50 values were calculated from the dose response results achieved from the serial dilutions.
Cytotoxicity assay with HepG2
Cytotoxicity analyses were performed in 96-well plates (Costar, Fisher Scientific) using alamarBlue® (Invitrogen) for cell viability detection using a modified protocol as previously described. The HepG2 cells were grown at 37 °C, 5% CO2 in DMEM high glucose supplemented with heat-inactivated foetal bovine sera (FBS, 10%; Biosera Ltd) and penicillin/streptomycin (P/S, 1%). Cells were counted using a Neubauer Improved Haemocytometer. HepG2 cells were seeded 1 day prior to treatment in 96 well plates at a concentration of 2x10^5 cells/mL in 100 µL of medium (2x10^4 cells/well). Then cells were pre-incubated with the compounds in triplicate (5 mM stock solutions in DMSO diluted from 100 µM to 3 µM; untreated cells with DMSO as a negative control) in 50 µl of the media for 1 hour.
Afterwards, 40 µL were removed from each well before the addition of 90 µL of the media, followed by incubation for 24 hours at 37 °C, 5% CO2. Then, 10 µL of alamarBlue® (Invitrogen) was added to each well before a 2 hour incubation prior to assessing cell viability using a fluorescent plate reader (Biotek; Ex 560 nm / Em 600 nm). All data was measured in triplicate on a minimum of two occasions to ensure a robust data set was collected. The ED50 values were calculated from the dose response results achieved from the serial dilutions. […]
5% CO2 in DMEM high glucose supplemented with heat-inactivated foetal bovine sera (FBS, 10%; Biosera Ltd) and penicillin/streptomycin (P/S, 1%). Cells were counted using a Neubauer […]
Empty wells were filled with 100 µL PBS. After 24 hours, cells were incubated with the compounds in a dilution series in triplicate from 2 – 100 µM (5 mM stock solutions in DMSO […]

[2] = Skin cell toxicity assay with HaCaT (alamarBlue); assay type: cell-based, human; conditions: human, HaCaT cells (keratinocytes)
In short: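 HaCaT cells seeded at 2x10^4 per well 24 hours before 1-hour exposure to a 2–100 µM triplicate dilution series in DMEM high glucose with 10% FBS at 37 °C, 5% CO2. Viability assessed with alamarBlue; ED50 defined as dose killing 50% of cells, derived from dose-response data.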

[3] = dose that kills 50% of cells, 2–100 μM, 1 h with compound then 24 h, alamarBlue, read-out: ED50 HepG2
[4] = dose that kills 50% of cells, 2–100 μM, 1 h with compound then 24 h, alamarBlue, read-out: ED50 HaCaT

## C[C@@H](c1ccccc1)N(CC(N)=O)C(=O)CN(Cc1ccc(F)cc1)C(=O)CN(CCCCN)C(=O)CN(C(=O)CN(Cc1ccc(F)cc1)C(=O)CN(CCCCN)C(=O)CN(C(=O)CN(Cc1ccc(F)cc1)C(=O)CN(CCCCN)C(=O)CN(C(=O)CN(Cc1ccc(F)cc1)C(=O)CNCCCCN)[C@@H](C)c1ccccc1)[C@@H](C)c1ccccc1)[C@@H](C)c1ccccc1 [Peptoid 26, (NLysNpfbNspe)4]
[1]; ED50 HepG2
  CC50 at 24 h: 26 µM
[2]; ED50 HaCaT
  CC50 at 24 h: 20 µM

## C[C@@H](c1ccccc1)N(CC(N)=O)C(=O)CN(Cc1ccc(F)cc1)C(=O)CN(CCCCN)C(=O)CN(C(=O)CN(Cc1ccc(F)cc1)C(=O)CN(CCCCN)C(=O)CN(C(=O)CN(Cc1ccc(F)cc1)C(=O)CNCCCCN)[C@@H](C)c1ccccc1)[C@@H](C)c1ccccc1 [Peptoid 27, (NLysNpfbNspe)3]
[1]; [3]
  CC50 at 24 h: 36 µM
[2]; [4]
  CC50 at 24 h: 52 µM

## C[C@@H](c1ccccc1)N(CC(N)=O)C(=O)CN(C(=O)CN(CCCCN)C(=O)CN(Cc1ccc(F)cc1)C(=O)CN(Cc1ccc(F)cc1)C(=O)CN(CCCCN)C(=O)CN(C(=O)CN(C(=O)CN(CCCCN)C(=O)CN(Cc1ccc(F)cc1)C(=O)CN(Cc1ccc(F)cc1)C(=O)CNCCCCN)[C@@H](C)c1ccccc1)[C@@H](C)c1ccccc1)[C@@H](C)c1ccccc1 [Peptoid 28, [(NLysNpfbNpfb)(NLysNspeNspe)]2]
[1]; ED50 HepG2
  CC50 at 24 h: 55 µM
[2]; ED50 HaCaT
  CC50 at 24 h: 100 µM

## C[C@@H](c1ccccc1)N(CC(N)=O)C(=O)CN(C(=O)CN(CCCCN)C(=O)CN(Cc1ccc(F)cc1)C(=O)CN(Cc1ccc(F)cc1)C(=O)CN(CCCCN)C(=O)CN(C(=O)CN(C(=O)CNCCCCN)[C@@H](C)c1ccccc1)[C@@H](C)c1ccccc1)[C@@H](C)c1ccccc1 [Peptoid 29, (NLysNspeNspe)(NLysNpfbNpfb)(NLysNspeNspe)]
[1]; [3]
  CC50 at 24 h: 43 µM
[2]; [4]
  CC50 at 24 h: 65 µM

## CCCCCNCC(=O)N(CC(=O)N(CC(=O)N(CCCCN)CC(=O)N(CC(=O)N(CC(=O)N(CCCCN)CC(=O)N(CC(=O)N(CC(=O)N(CCCCN)CC(=O)N(CC(=O)N(CC(N)=O)[C@@H](C)c1ccccc1)[C@@H](C)c1ccccc1)[C@@H](C)c1ccccc1)[C@@H](C)c1ccccc1)[C@@H](C)c1ccccc1)[C@@H](C)c1ccccc1)[C@@H](C)c1ccccc1)[C@@H](C)c1ccccc1 [Peptoid 30, (NamyNspeNspe)[(NLysNspeNspe)]3]
[1]; ED50 HepG2
  CC50 at 24 h: 15 µM
[2]; ED50 HaCaT
  CC50 at 24 h: 12 µM

## CCCCCNCC(=O)N(CC(=O)N(CC(=O)N(CCCCC)CC(=O)N(CC(=O)N(CC(=O)N(CCCCN)CC(=O)N(CC(=O)N(CC(=O)N(CCCCN)CC(=O)N(CC(=O)N(CC(N)=O)[C@@H](C)c1ccccc1)[C@@H](C)c1ccccc1)[C@@H](C)c1ccccc1)[C@@H](C)c1ccccc1)[C@@H](C)c1ccccc1)[C@@H](C)c1ccccc1)[C@@H](C)c1ccccc1)[C@@H](C)c1ccccc1 [Peptoid 31, (NamyNspeNspe)2(NLysNspeNspe)2]
[1]; ED50 HepG2
  CC50 at 24 h: 18 µM
[2]; ED50 HaCaT
  CC50 at 24 h: 20 µM

## CCCCCN(CC(=O)N(CC(=O)N(CC(=O)N(CCCCN)CC(=O)N(CC(=O)N(CC(N)=O)[C@@H](C)c1ccccc1)[C@@H](C)c1ccccc1)[C@@H](C)c1ccccc1)[C@@H](C)c1ccccc1)C(=O)CN(C(=O)CN(C(=O)CN(CCCCN)C(=O)CN(C(=O)CN(C(=O)CNCCCCN)[C@@H](C)c1ccccc1)[C@@H](C)c1ccccc1)[C@@H](C)c1ccccc1)[C@@H](C)c1ccccc1 [Peptoid 32, (NLysNspeNspe)2(NamyNspeNspe)(NLysNspeNspe)]
[1]; ED50 HepG2
  CC50 at 24 h: 22 µM
[2]; ED50 HaCaT
  CC50 at 24 h: 20 µM

## C[C@@H](c1ccccc1)N(CC(N)=O)C(=O)CN(C(=O)CN(CCCCNC(=N)N)C(=O)CN(C(=O)CN(C(=O)CN(CCCCNC(=N)N)C(=O)CN(C(=O)CN(C(=O)CN(CCCCNC(=N)N)C(=O)CN(C(=O)CN(C(=O)CNCCCCNC(=N)N)[C@@H](C)c1ccccc1)[C@@H](C)c1ccccc1)[C@@H](C)c1ccccc1)[C@@H](C)c1ccccc1)[C@@H](C)c1ccccc1)[C@@H](C)c1ccccc1)[C@@H](C)c1ccccc1 [Peptoid 34, (NhArgNspeNspe)4] (H-[NhArg][Nspe][Nspe][NhArg][Nspe][Nspe][NhArg][Nspe][Nspe][NhArg][Nspe][Nspe]-NH2)
[1]; ED50 HepG2
  CC50 at 24 h: 12 µM
[2]; ED50 HaCaT
  CC50 at 24 h: 11 µM

## CCCCCNCC(=O)N(CC(=O)N(CC(=O)N(CCCCNC(=N)N)CC(=O)N(CC(=O)N(CC(=O)N(CCCCC)CC(=O)N(CC(=O)N(CC(=O)N(CCCCNC(=N)N)CC(=O)N(CC(=O)N(CC(N)=O)[C@@H](C)c1ccccc1)[C@@H](C)c1ccccc1)[C@@H](C)c1ccccc1)[C@@H](C)c1ccccc1)[C@@H](C)c1ccccc1)[C@@H](C)c1ccccc1)[C@@H](C)c1ccccc1)[C@@H](C)c1ccccc1 [Peptoid 40, [(NamyNspeNspe)(NhArgNspeNspe)]2] (H-[NPentylGly][Nspe][Nspe][NhArg][Nspe][Nspe][NPentylGly][Nspe][Nspe][NhArg][Nspe][Nspe]-NH2)
[1]; ED50 HepG2
  CC50 at 24 h: 24 µM
[2]; ED50 HaCaT
  CC50 at 24 h: 31 µM
